These are literature values, as cited in US6890568B2, “Method for management of blood glucose levels” (priority 1999, dated 2005).

This data set deals with insulin-deficient, streptozotocin-induced rat model of diabetes. The settings on record: vanadate in the drinking water.

Turning to `[O]=[V]([O-])([O-])[O-]` [vanadate], the control of diabetes result is reported as “shown to control diabetes” and the side effects result is “life-threatening diarrhea”.
